In test [1] the test system is castor oil-stimulated gastrointestinal transit in rats. As to the kind of experiment: Small intestinal transit, charcoal meal (Table 3). It is filed as in vivo. Conditions: 0.1 mg kg^−1 IP. Here is the method:
Animals were divided into four groups of six rats each and each animal was given orally 1 ml of charcoal meal (5% activated charcoal suspended in 1% CMC) 60 min after an oral dose of drugs or vehicle. Group I was administered with 1% CMC (10 ml kg^−1) and animals in the other groups received various formulations. Another group received atropine sulfate (0.1 mg kg^−1, IP) as standard drug. After 30 min animals were killed by cervical dislocation and the intestine was removed without stretching and placed lengthwise on moist filter paper. The length of the intestine (pyloric sphincter to caecum) and the distance travelled by the charcoal as a percentage of that length were evaluated for each animal, and group means were compared and expressed as percentage inhibition (Lutterodt, J. Ethnopharmacol. 25, 1989, 235–247). […] Therefore the dose dependent effect of the formulation was similar to the synthetic drug atropine. But long use of atropine completely blocks the secretions it is an adverse effect.

Test [2] has as its system human carcinoma cells of the naso-pharynx. The conditions noted are these: cell culture; cited from earlier work.
The test system of test [3] is castor oil induced diarrhea in rats. The test is described as follows: Castor oil induced diarrhea / defecation, total faecal matter over 4 h (Table 1). It is filed as in vivo. Conditions: 5.0 mg kg^−1 p.o. The procedure:
Groups of six mice each were placed individually in separate cages with filter papers at the bottom. Different doses of the extracts were administered orally to different groups. The non-specific antidiarrhoeal reference drug diphenoxylate HCl (5.0 mg kg^−1, p.o.) and 1% CMC ([…], p.o.) were administered to two groups and later served as controls (Melo et al, J. Pharm. Pharmacol. 40 (1988), […]). The total number of the faecal matter in each group was assessed every hour for the next 4 h. Percent reduction in the total number of faeces in the treated groups was obtained by comparison with control animals.
The method of Awouters et al. (J. Pharm. Pharmacol, 30, 1978, 41–45) as modified by Nwodo and Alumanah (J. Ethnopharmacol, 31, 1991, 395–398) was used. Briefly, rats fasted for 24 h were randomly allocated to five groups of six animals each. One group received 1% CMC (10 mL kg^−1, p.o.), other groups received orally the different dosage of drug extract. Another group given diphenoxylate HCl (5.0 mg kg^−1, p.o.) as suspension. After 60 min each animal was given with 2 ml of castor oil by orogastric cannula, and placed in a separate cage and observed for 4 h defecation. Transparent plastic dishes were placed beneath each cage and the characteristic diarrhoeal droppings were noted. The total number of the faecal matter in each group was assessed every hour for the next 4 h. […]

Test [4] concerns indomethacin induced acute gastric ulcers in rats. The test is described as follows: Indomethacin induced acute gastric ulcers (Table 4). The conditions noted are these: 50 mg/kg. It is filed as in vivo. Here is the method: To assess the efficacy of different formulations against the indomethacin induced gastric ulcer different doses (25–100 mg kg^−1, p.o.) of formulations were administered to groups of 10 mice for each dose, while one group of the same number of mice served as control and the
The results of Table 4 represents that there is a significant and dose dependent anti ulcer activity and percentage ratio ranges of protection from 27.03 to 75.38.

The test system of test [5] is cysteamine induced duodenal ulcers in rats. The test is described as follows: Cysteamine induced duodenal ulcers (Table 5). It is filed as in vivo. Conditions: 50 mg/kg. An excerpt: The efficacy is compared with the known standard synthetic drug Ranitidine for treatment of. […] Where as the formulation F5 contains […]. indica, Cinamommum sp. and Buchanania lanzan.

Where “and” joins values, the source holds several entries; their conditions need not be identical. Equal entries are not always repeated. Structures can show the parent of a compound that is named as a salt. Marks after values point to notes of the source that are not given here.

In the case of `CN1[C@@H]2CC[C@H]1CC(OC(=O)C(CO)c1ccccc1)C2.CN1[C@@H]2CC[C@H]1CC(OC(=O)C(CO)c1ccccc1)C2.O=S(=O)(O)O` (some centres unmarked) [Atropine sulphate, atropine sulfate], in test [1], the “Mean distance travelled by charcoal” value is given as 26.5 ± 2.6^b cm and the “Reduction (%)” value amounted to 68.33%.

For the compound `COc1cc2c3c(O)c1OCc1ccc(cc1)C[C@@H]1c4c(cc(OC)c(OC)c4Oc4ccc(cc4)CC3=NCC2)CCN1C` [Cissampareine], the “inhibitory activity against human carcinoma cells of the naso-pharynx” value in test [2] is “significant and reproducible inhibitory activity”.

In the case of `CCOC(=O)C1(c2ccccc2)CCN(CCC(C#N)(c2ccccc2)c2ccccc2)CC1` [Diphenoxylate HCl, diphenoxylate HCl], in test [3] (counted over 4 h, six rats per group), the “Total no of faecal matter” value was determined as 16. In test [3] (vs control 1% CMC), the “% Reduction (Inhibition)” value worked out at 75.38%.

Consider `CNC(=C[N+](=O)[O-])NCCSCc1ccc(CN(C)C)o1` [Ranitidine], for which, in test [4], the “% Curative ratio” value came out at 82.20% and the Ulcer index is 0.81 ± 0.01^b. In test [5], the “% Protection” value was 77% and 77.9%; the Ulcer incidence % was 20%; the “Ulcer incidence No” value is recorded as 2/10; the “Ulcer score Total lesion area” value is recorded as 1.06 ± 0.17^c mm^2.

The values above are taken from patent US7172772B2, “Herbal composition for gastrointestinal disorders” (Council of Scientific & Industrial Research, priority 2003, dated 2007).
